In the supplement of paper PMC10307832:

What was measured:
Assay in all cases: relative viability (nuclei count vs DMSO), 5 days (fraction); higher = more cells survive
COR-L23 = test system: COR-L23
In short: (§1)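 Lung cancer cell lines in 1536-well plates were dosed by pin tool the day after seeding, either with one drug alone or with a fixed anchor-drug dose plus five library-drug doses (not always all listed) in √10 steps. After 5 days, cells were fixed and their nuclei stained in one step (final 0.05% Triton X-100, 1% formaldehyde, 1 ug/ml Hoechst), then counted on 4× images. Relative viability is the nuclei count in treated wells divided by that in vehicle wells. Values are medians of duplicate plates.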

HOP-62 = test system: HOP-62
In short: as §1

UMC-11 = test system: UMC-11
In short: as §1

NCI-H1755 = test system: NCI-H1755
In short: as §1

NCI-H358 = test system: NCI-H358
In short: as §1

COR-L 105 = test system: COR-L 105
In short: as §1

NCI-H647 = test system: NCI-H647
In short: as §1

NCI-H1734 = test system: NCI-H1734
In short: as §1

NCI-H1395 = test system: NCI-H1395
In short: as §1

HARA = test system: HARA
In short: as §1

NCI-H1792 = test system: NCI-H1792
In short: as §1

SMILES: O=c1cc(N2CCOCC2)oc2c(-c3cccc4c3sc3ccccc34)cccc12 + COc1cccc2cc(-c3nc([C@H]4CC[C@H](C(=O)O)CC4)n4ncnc(N)c34)[nH]c12 [OSI-027] (partner 0.5 µM)
- relative viability (COR-L23; first compound 0.01 µM): 0.748
- relative viability (COR-L23; first compound 0.03162 µM): 0.774
- relative viability (COR-L23; first compound 0.1 µM): 0.748
- relative viability (COR-L23; first compound 0.3162 µM): 0.796
- relative viability (COR-L23; first compound 1 µM): 0.834
- relative viability (HOP-62; first compound 0.01 µM): 0.787
- relative viability (HOP-62; first compound 0.03162 µM): 0.842
- relative viability (HOP-62; first compound 0.1 µM): 0.821
- relative viability (HOP-62; first compound 0.3162 µM): 0.81
- relative viability (HOP-62; first compound 1 µM): 0.804
- relative viability (UMC-11; first compound 0.01 µM): 0.472
- relative viability (UMC-11; first compound 0.03162 µM): 0.507
- relative viability (UMC-11; first compound 0.1 µM): 0.496
- relative viability (UMC-11; first compound 0.3162 µM): 0.526
- relative viability (UMC-11; first compound 1 µM): 0.45
- relative viability (NCI-H1755; first compound 0.01 µM): 0.785
- relative viability (NCI-H1755; first compound 0.03162 µM): 0.691
- relative viability (NCI-H1755; first compound 0.1 µM): 0.783
- relative viability (NCI-H1755; first compound 0.3162 µM): 0.673
- relative viability (NCI-H1755; first compound 1 µM): 0.685
- relative viability (NCI-H358; first compound 0.01 µM): 0.83
- relative viability (NCI-H358; first compound 0.03162 µM): 0.878
- relative viability (NCI-H358; first compound 0.1 µM): 0.881
- relative viability (NCI-H358; first compound 0.3162 µM): 0.844
- relative viability (NCI-H358; first compound 1 µM): 0.781
- relative viability (COR-L 105; first compound 0.01 µM): 0.668
- relative viability (COR-L 105; first compound 0.03162 µM): 0.825
- relative viability (COR-L 105; first compound 0.1 µM): 0.656
- relative viability (COR-L 105; first compound 0.3162 µM): 0.786
- relative viability (COR-L 105; first compound 1 µM): 0.553
- relative viability (NCI-H647; first compound 0.01 µM): 0.689
- relative viability (NCI-H647; first compound 0.03162 µM): 0.739
- relative viability (NCI-H647; first compound 0.1 µM): 0.302
- relative viability (NCI-H647; first compound 0.3162 µM): 0.747
- relative viability (NCI-H647; first compound 1 µM): 0.745
- relative viability (NCI-H1734; first compound 0.01 µM): 0.697
- relative viability (NCI-H1734; first compound 0.03162 µM): 0.599
- relative viability (NCI-H1734; first compound 0.1 µM): 0.579
- relative viability (NCI-H1734; first compound 0.3162 µM): 0.67
- relative viability (NCI-H1734; first compound 1 µM): 0.609
- relative viability (NCI-H1395; first compound 0.01 µM): 0.574
- relative viability (NCI-H1395; first compound 0.03162 µM): 0.695
- relative viability (NCI-H1395; first compound 0.1 µM): 0.488
- relative viability (NCI-H1395; first compound 0.3162 µM): 0.68
- relative viability (NCI-H1395; first compound 1 µM): 0.707
- relative viability (HARA; first compound 0.01 µM): 0.549
- relative viability (HARA; first compound 0.03162 µM): 0.638
- relative viability (HARA; first compound 0.1 µM): 0.554
- relative viability (HARA; first compound 0.3162 µM): 0.585
- relative viability (HARA; first compound 1 µM): 0.564
- relative viability (NCI-H1792; first compound 0.01 µM): 0.717
- relative viability (NCI-H1792; first compound 0.03162 µM): 0.716
- relative viability (NCI-H1792; first compound 0.1 µM): 0.653
- relative viability (NCI-H1792; first compound 0.3162 µM): 0.752
